Test results published in patent US4082760A, “Derivatives of 2H,3H-benzimidazo(1,2-b)oxazole” (Italchemi S.p.A. Istituto Chimico Farmaceutico, priority 1975, dated 1978).

What was measured:
Assay in all cases: MIC of antibiotics alone or mixed with equimolar compound, beta-lactamase-producing germs
Type in all cases: cell-based
[1] = tested on: Escherichia Coli R3; conditions: combinations: equimolar quantities
Text: (§1) The capacity of the products of general formula (I) to compete with the action of the beta-lactamase may be shown by comparing the minimum inhibiting concentrations (MIC) of some penicillins and cephalosporins when mixed with equimolar quantities of the products of general formula I and when not so mixed, in relation to pathogenic germs which produce beta-lactamase.

[2] = tested on: Escherichia Coli R8; conditions: combinations: equimolar quantities
Text: as §1

[3] = tested on: Escherichia Coli R9; conditions: combinations: equimolar quantities
Text: as §1

[4] = tested on: Protetts Rettgeri R5; conditions: combinations: equimolar quantities
Text: as §1

[5] = tested on: Protetts mirabilis R2; conditions: combinations: equimolar quantities
Text: as §1

[6] = tested on: Protetts mirabilis R7; conditions: combinations: equimolar quantities
Text: as §1

[7] = tested on: Protetts mirabilis; conditions: Protetts mirabilis (strain number not given); combinations: equimolar quantities
Text: as §1

[8] = tested on: Pseudomonas Aeruginosa R4; conditions: combinations: equimolar quantities
Text: as §1

[9] = tested on: Pseudomonas Aeruginosa R1; conditions: combinations: equimolar quantities
Text: as §1

| SMILES | MIC [1] | MIC [2] | MIC [3] | MIC [4] | MIC [5] | MIC [6] | MIC [7] | MIC [8] | MIC [9] |
| --- | --- | --- | --- | --- | --- | --- | --- | --- | --- |
| CC1(C)S[C@@H]2[C@H](NC(=O)[C@H](N)c3ccccc3)C(=O)N2[C@H]1C(=O)O [Ampicillin] | 1000 γ/cc | 500 γ/cc | 500 γ/cc | 1000 γ/cc | 1000 γ/cc | 1000 γ/cc | 1000 γ/cc | 1000 γ/cc |  |
| O=C(Cc1cccs1)N[C@@H]1C(=O)N2C(C(=O)[O-])=C(C[n+]3ccccc3)CS[C@H]12 [Cephaloridine] |  |  |  |  |  |  |  |  | 1000 γ/cc |
| CC(=O)OCC1=C(C(=O)O)N2C(=O)[C@@H](NC(=O)Cc3cccs3)[C@H]2SC1 [Cephalothin] |  |  | 1000 γ/cc |  |  |  |  | 1000 γ/cc |  |
